{
  "source": "paper PMC11959706",
  "about": "“Allatostatin-C signaling in the crab Carcinus maenas is implicated in the ecdysis program” (The Journal of Experimental Biology, 2025)",
  "key": {"[1]": {"test_system": "AST-CRd (TR71151)", "assay": "Aequorin luminescence receptor assay, CHO-K1-Aeq-Gα16 cells transiently expressing AST-CRd", "format": "cell-based, Carcinus maenas", "description": "(§1) The transcriptome of neural tissue of C. maenas, which has been previously assembled ([Oliphant et al., 2018]), identified four putative AST-C receptor candidates: TR71151a-d ([Oliphant et al., 2018]). These were chemically synthesized with a modified 5′ Kozak sequence (GAATTCGCCACC) and cloned in frame into a pcDNA3.1(+) plasmid vector (Genscript, Piscataway, NJ, USA). Separate aliquots of OneShot TOP10® E. coli cells (Invitrogen, Paisley, UK) were transformed with the plasmids and grown on LB plates containing 100 µg ml^−1 ampicillin overnight at 37°C. Positive clones were cultured overnight in LB broth with 100 µg ml^−1 ampicillin at 37°C and plasmids extracted using a Qiagen Plasmid Midiprep kit according to the manufacturer's instructions. Purified plasmids were re-sequenced (MWG Eurofins, Ebersberg, Germany) and analyzed using Geneious 9.1.8 ([Kearse et al., 2012]).\nChinese hamster ovary (CHO-K1) cells containing stably expressed apoaequorin (Perkin Elmer, Boston, MA) and either Gα16 or Gq subunit (control cells) were cultured in Dulbecco's Modified Eagle Medium (DMEM) F-12 Nutrient Mixture Glutamax (Gibco®) supplemented with 10% fetal bovine serum (Gibco®). Cells were maintained in vented T75 flasks at 37°C in 5% CO2. Cells grown in a monolayer to approximately 60% confluency were transfected with pcDNA 3.1 constructs using FugeneHD® (Promega) according to the manufacturer's recommendations. Transfection medium was prepared by combining 800 µl Opti-MEM® (Gibco) with 10 µg vector and the cells further incubated overnight. Cells were detached from the culture flask by incubating for 10 min in 5 ml 0.2% EDTA in PBS, washed in 10 ml clear DMEM–F-12 containing L-glutamine and 15 mmol l^−1 HEPES, centrifuged (for 5 min at 260 g) and resuspended at a concentration of 5×10^6 cells ml^−1 in 0.2 µm filtered BSA medium (DMEM–F-12 containing L-glutamine, 15 mmol l^−1 HEPES and 0.1% BSA). Coelenterazine h (Invitrogen, Paisley, UK) was added to give a concentration of 5 µmol l^−1, and the cells incubated in the dark at room temperature with gentle rocking. Before the assay, cells were further diluted (10-fold) and incubated for 60 min before use. Dried aliquots of peptides were reconstituted in BSA medium, and 50 µl added in quadruplicate to a white 96-well plate (Optiplate®, Perkin Elmer). Cell suspensions were gently stirred and injected (50 µl per well) using a Mithras LB 940 microplate reader (Berthold Technologies, Bad Wildbad, Germany) and light emission (Ca^2+ response recorded for 30 s). Cells were then lysed by injection of 50 µl per well 0.3% Triton-X in BSA medium, and light emission recorded for a further 10 s to measure total Ca^2+ response. BSA medium was used for blank measurements (six replicates per plate) and transfection with empty vectors was used for negative controls. Data were analyzed using Mikrowin 2010 v5 (Mikrotek Laborsysteme, Overath, Germany) and SigmaPlot v15 (Systat Software, Grafiti, Slough, UK)."}, "[2]": {"test_system": "semi-isolated heart preparations", "assay": "Semi-isolated heart preparation bioassay", "design": "species or system Carcinus maenas", "conditions": "10^−6 mol l^−1 in saline, 20°C, recorded about 2 min; four preparations", "description": "To determine possible myotropic and/or myoinhbitory activity of AST-C, AST-CC and AST-CCC, inter-molt crabs (∼65 mm carapace width) were ice-anaesthetized and rapidly decerebrated before removing all limbs and the dorsal carapace to expose the heart and pericardial cavity. The preparation was then fitted into a bowl lined with tissue, to provide a stable saline-flooded environment. The heart was connected to a force transducer (MLT0210/A) via a micro-fishing hook (size 28) and fine nylon (0.08 mm) monofilament. Connection to a PC with Chart 4.0 software was via a Bridge Pod (ML301) and Powerlab 4/20 (AD Instruments, Castle Hill, NSW, Australia). Transducer gain was set at maximum sensitivity (200 μV). Heart preparations were initially perfused with Carcinus physiological saline ([Saver et al., 1999]) at room temperature (20°C). Once a stable output was achieved, hearts were then perfused by sequentially adding approximately 2 ml saline containing AST-C, AST-CC and AST-CCC (GenScript Biotech, Piscataway, NJ, USA), and finally adding CCAP as a positive control (all peptides were at a concentration of 10^−6 mol l^−1 in saline). Each peptide addition was followed by extensive washout with saline, recording heart rate and beat amplitude for approximately 2 min after application of each peptide."}, "[3]": {"test_system": "putative AST-C receptor candidates TR71151a-d other than AST-CR(d)", "assay": "Aequorin luminescence receptor assay, other putative AST-C receptor candidates", "format": "cell-based, Carcinus maenas", "conditions": "each candidate transiently expressed in CHO-K1-Aeq cells; 1µM peptide (Fig. S3)", "description": "as §1, with “Positive clones were cultured overnight in LB broth with 100 µg ml^−1 ampicillin at 37°C and plasmids extracted using a Qiagen Plasmid Midiprep kit according to the manufacturer's instructions.” left out\nChinese hamster ovary (CHO-K1) cells containing stably expressed apoaequorin (Perkin Elmer, Boston, MA) and either Gα16 or Gq subunit (control cells) were cultured in Dulbecco's Modified Eagle Medium (DMEM) F-12 Nutrient Mixture Glutamax (Gibco®) supplemented with 10% fetal bovine serum (Gibco®). […] Cell suspensions were gently stirred and injected (50 µl per well) using a Mithras LB 940 microplate reader (Berthold Technologies, Bad Wildbad, Germany) and light emission (Ca^2+ response recorded for 30 s). Cells were then lysed by injection of 50 µl per well 0.3% Triton-X in BSA medium, and light emission recorded for a further 10 s to measure total Ca^2+ response. […]"}, "[4]": {"test_system": "Y-organs", "assay": "Y-organ in vitro bioassay of ecdysteroid synthesis (ecdysteroid RIA)", "format": "cell-based, Carcinus maenas", "conditions": "native MIH 2 nmol l^−1, 24 h incubation, positive control", "procedure": "To determine the possible activity of AST-C and/or AST-CC on ecdysteroid synthesis, Y-organs (YOs) were dissected from ice-anaesthetized crabs and used in the in vitro bioassay as detailed previously ([Webster, 1986]). Following 24 h incubations, culture medium was aspirated and snap frozen in liquid nitrogen prior to ecdysteroid RIA. YOs were sonicated in PBS, centrifuged (13,000 g for 5 min at room temperature) and assayed for protein concentration using a BCA protein kit (EMD Millipore, Burlington MA, USA). Protein concentrations (BSA standards) were used to normalize ecdysteroid synthesis between YO pairs.\nEcdysteroid RIAs were performed on 20 µl aliquots of culture medium using the following conditions: 100 μl 1:2000 anti-ecdysteroid serum HB-2E (a kind gift from R. D Watson, Alabama University), 100 µl H^−3 Ponasterone A [24, 25, 26, 27-3H (N), 3.5 TBq mmol^−1 (American Radiochemical Company, St Louis, MO, USA)] at 28,000 dpm per tube. 25-Deoxyecdysone (a kind gift from Prof. R. Lafont, Sorbonne University, Paris) was used as a standard (range 2500–19.5 pg per tube), and unknowns and standards were assayed in triplicate. Bound was separated from free using 50 µl per tube immobilized donkey anti-rabbit nitrocellulose suspension (Sac-Cel), as detailed for the AST-C RIA. Pellets were resuspended in 600 µl Hi-Safe 3 (Perkin Elmer) prior to counting. Using this RIA, both ecdysone and 25-deoxyecdysone (the two ecdysteroids synthesized by C. maenas YOs) were equally recognized."}},
  "note": "“Also recorded” adds a separate entry of the source. Bridge positions count the residues as written; N and C are the ends. Ends that are not written are not given here.",
  "data": [
    {"substance": "AGCKNFFWKTFTSC [somatostatin, vertebrate homolog/paralog of AST-C, reference compound]", "values": [
      {"measurement": "Activation of AST-CRd at saturating doses", "setting": "[1]; 10, 1 µmol l^−1 peptide, quadruplicate", "value": "failed to activate; also recorded: without effect"}
    ]},
    {"substance": "SYWKQCAFNAVSCF-NH2 (disulfide 6-13 (inferred)) [AST-CCC, C. maenas AST-C family neuropeptide, C-terminally amidated; synthetic (GenScript)]", "values": [
      {"measurement": "Effect on heartbeat amplitude", "setting": "[2]", "value": "entirely unaffected"},
      {"measurement": "Effect on heartbeat frequency (heart rate)", "setting": "[2]", "value": "entirely unaffected"},
      {"measurement": "Activation of AST-CRd at extremely high doses", "setting": "[1]; 10^−6 mol l^−1", "value": "slight activation"},
      {"measurement": "Luminescence response relative to the maximum response elicited by 10 µmol l^−1 AST-CC", "setting": "[1]; peptide at 10 µmol l^−1, quadruplicate", "value": "less than 20%"},
      {"measurement": "Activation of the other candidate AST-C receptors", "setting": "[3]", "value": "not activated"}
    ]},
    {"substance": "crustacean cardioactive peptide [CCAP, reference compound]", "values": [
      {"measurement": "Effect on heartbeat amplitude", "setting": "[2]", "value": "increased amplitude"},
      {"measurement": "Effect on heartbeat frequency (heart rate)", "setting": "[2]", "value": "more than doubled"}
    ]},
    {"substance": "molt inhibiting hormone [reference compound]", "values": [
      {"measurement": "Effect on ecdysteroid synthesis by Y-organs", "setting": "[4]", "value": "large inhibitory effect"},
      {"measurement": "Effect on ecdysteroid synthesis by Y-organs", "setting": "[4]; listed as MIH", "value": "full inhibition"}
    ]}
  ]
}
